From patent US20240415789A1, “CYCLOBENZAPRINE FOR TREATMENT OR PREVENTION OF SEXUAL DYSFUNCTION ASSOCIATED WITH MENTAL HEALTH CONDITIONS IN FEMALE PATIENTS” (Tonix Pharmaceuticals Holding Corp., priority 2021, published 2024) come the findings set out here.

For data set [1] the following is noted: both Phase 3 studies. As to the method:
(§1) Three randomized, placebo-controlled and double-blind clinical trials of the above described 5.6 mg cyclobenzaprine HCl sublingual formulation (2×2.8 mg tablets) were performed, a Phase 2 study and a Phase 3 study in military-related PTSD, and a Phase 3 study in predominantly civilian PTSD. […] The present retrospective analysis examined the activity of the cyclobenzaprine HCl sublingual formulation on the Changes in Sexual Functioning Questionnaire short form (CSFQ-14) in the two Phase 3 studies.
(§2) In the Phase 3 study in predominantly civilian PTSD, the inclusion criteria were broadened to include civilian participants with current PTSD, as determined by the CAPS-5. Accordingly, this study included 94% civilian trauma with a minimum baseline severity score of ≥33 on the CAPS-5. […] Thus, analyses were conducted on the interim analysis sample of 252 participants in the military Phase 3 study (89% male [n=225 M; n=27 F]; 100% military PTSD) and […] subjects in the civilian Phase 3 study (79% female [n=129 F; n=34 M]; 94% civilian PTSD).

Data set [2] has as its system female sexual functioning in females with predominantly civilian PTSD. The settings on record: civilian Phase 3, female completers 5.6 mg (N=58) vs placebo (N=55), 12 weeks. As to the method: as §1, §2
(§3) The CSFQ-14 is a validated 14-item measure (Keller, McGarvey, Clayton, 2006) that has male and female versions which were analyzed separately. In addition to a total sexual functioning score, there are five sub-scales: desire/frequency, desire/interest, arousal/excitement, orgasm/complete, and pleasure. The items range on 5-point Likert scale from (never) to (every day). Higher scores reflect greater levels of sexual functioning.

Another data set relates to PTSD. The settings on record: all three trials (Phase 2, two Phase 3), 5.6 mg dose. As to the method:
as §1

The conditions of data set [3]: Phase 2 study in military-related PTSD, drug and placebo groups. As to the method:
as §1

A further data set relates to military-related PTSD. The settings on record: female subgroup (10 active, 17 placebo), 5.6 mg per day sublingual, after 12 weeks of treatment. As to the method: (§4) Methods: In this 12-week, multicenter, adaptive design, randomized controlled fixed-dose trial, 5.6 mg cyclobenzaprine HCl (2×2.8 mg sublingual tablets, comprising a 75%±2% cyclobenzaprine HCl and 25%±2% mannitol eutectic and a potassium phosphate dibasic anhydrous basifying agent) taken daily at bedtime was compared to placebo for the treatment of PTSD at 45 U.S. sites. […] A pre-planned interim analysis was conducted when about half the originally planned sample of 550 participants had outcome data.
(§5) The modified intention-to-treat (mITT) population, which included all randomized subjects with at least one post-baseline CAPS-5, included 125 participants treated with 5.6 mg dose per day the above cyclobenzaprine HCl sublingual formulation and 127 participants on placebo were studied.

The procedure of data set [4]: as §4, §5
Data set [5] relates to female sexual functioning in females with military-related PTSD. The conditions noted are these: military Phase 3, females 5.6 mg (N=8) vs placebo (N=16), 12 weeks. As to the method:
as §4, §5
Sexual functioning was measured by Changes in Sexual Functioning Questionnaire short-form (CSFQ-14) which is a validated 14-item measure (Keller, McGarvey, Clayton, 2006). Parallel gender-specific versions are administered to males (CSFQ-14-M) and females (CSFQ-14-F), and each sex was analyzed separately. In addition to a total sexual functioning score, there are five sub-scales: desire/frequency, desire/interest, arousal/excitement, orgasm/complete, and pleasure. The scales range from (never) to (every day) and higher scores reflect greater levels of sexual functioning.
as §2, §3

Molecules are shown by their SMILES. Structures can show the parent of a compound that is named as a salt. Where two headings read alike, the source gives them in different places. Some results are limits rather than exact numbers.

In the case of `CN(C)CCC=C1c2ccccc2C=Cc2ccccc21` [cyclobenzaprine HCl], the “severity of oral hypoaesthesia” value in data set [1] is on record as “never rated as severe”. For the same molecule, the “most frequent adverse event” value in data set [1] (5.6 mg sublingual) is on record as “oral hypoaesthesia”. Besides, the “duration of oral hypoaesthesia post administration” value in data set [1] (generally transient) is less than 60 min. In addition, the “most common systemic adverse event” value in data set [1] (also never rated as severe) was “somnolence”. For the same molecule, in data set [2], the “CSFQ-14-F arousal/excitement subscale, Hedges' g vs placebo” value was determined as 0.33; the “CSFQ-14-F desire/frequency subscale, Hedges' g vs placebo” value was 0.21; the “CSFQ-14-F desire/interest subscale, Hedges' g vs placebo” value is recorded as 0.23; the “CSFQ-14-F orgasm/completion subscale, Hedges' g vs placebo” value worked out at 0.29. Besides, the “CSFQ-14-F pleasure subscale, Hedges' g vs placebo” value in data set [2] is reported as 0.19. Moreover, the “CSFQ-14-F total score, Hedges' g effect size vs placebo” value in data set [2] (p=0.07) turned out to be 0.37. For the same molecule, the “activity on clinician- and patient-rated global PTSD symptoms (CGI and PGIC)” value in the data set on PTSD is reported as “encouraging activity”. Also, the “rates of adverse events related to sexual function” value in data set [3] is listed as “very low rates”. For the same molecule, in the data set with military-related PTSD, the “observed mean improvement in CAPS-5 over placebo” value was −9.1 units. Further, the “severity of oral hypoaesthesia” value in data set [4] (military Phase 3) is “never rated as severe”. Also, the “participants with at least one AE leading to study discontinuation” value in data set [4] (military Phase 3, 5.6 mg dose (placebo: two)) stood at 8 participants. In data set [4] (military Phase 3, 5.6 mg sublingual daily at bedtime), the “most frequent adverse event” value is listed as “oral hypoaesthesia”. Moreover, in data set [4] (military Phase 3, generally transient), the “duration of oral hypoaesthesia post administration” value is less than 60 min. Further, in data set [4] (military Phase 3, also never rated as severe), the “most common systemic adverse event” value is “somnolence”. In data set [5], the “CSFQ-14-F arousal/excitement subscale, Hedges' g vs placebo” value is 0.55; the “CSFQ-14-F desire/frequency subscale, Hedges' g vs placebo” value is listed as 0.46; the “CSFQ-14-F desire/interest subscale, Hedges' g vs placebo” value came out at 0.63; the “CSFQ-14-F orgasm/completion scale, effect vs placebo” value is “No effect”. For the same molecule, in data set [5], the “CSFQ-14-F pleasure subscale, Hedges' g vs placebo” value was 0.54 and the “CSFQ-14-F total score, Hedges' g effect size vs placebo” value was determined as 0.49.
